Earlier results in patent publication US6077934A (priority 1998, dated 2000).

Test system: Swiss Webster mice
Conditions: mouse, in vivo

## GCX1 X2 EPWC [contryphan-R]
  symptomatology after intracranial injection: "stiff-tail syndrome"
